Measurements from patent US12358948B2, “Neurotensinergic agonists and methods of using same preventing or treating pain” (priority 2019, dated 2025).
*1 amine or outer side, *2 acyl side, *3 side chain or, on linkers, in order; H or OH if unused. Where a SMILES comes first, the peptide text is derived from it. Bridges are numbered along the chain shown (N, C = ends). [ ]: non-standard residue; d: D form. ξ: configuration not given here. ξαMeNle(6-ylidene) = CC(CCCC=[*:3])(N[*:1])C(=O)[*:2]; Phe(4-CF3) = N[C@@H](Cc1ccc(C(F)(F)F)cc1)C(=O)O; Phe(4-tBu) = CC(C)(C)c1ccc(C[C@H](N)C(=O)O)cc1; Bip = N[C@@H](Cc1ccc(-c2ccccc2)cc1)C(=O)O; Phe(3-Br) = N[C@@H](Cc1cccc(Br)c1)C(=O)O; Phe(3-Cl) = N[C@@H](Cc1cccc(Cl)c1)C(=O)O; Phe(4-Br) = N[C@@H](Cc1ccc(Br)cc1)C(=O)O; Phe(4-CN) = N#Cc1ccc(C[C@H](N)C(=O)O)cc1; Phe(4-Cl) = N[C@@H](Cc1ccc(Cl)cc1)C(=O)O; Dip = N[C@H](C(=O)O)C(c1ccccc1)c1ccccc1; Phe(3-I) = N[C@@H](Cc1cccc(I)c1)C(=O)O; 2Nal = N[C@@H](Cc1ccc2ccccc2c1)C(=O)O; Ala(cPent) = N[C@@H](CC1CCCC1)C(=O)O; hTyr = N[C@@H](CCc1ccc(O)cc1)C(=O)O; Hpg = N[C@H](C(=O)O)c1ccc(O)cc1; AllylGly = C=CC[C@H](N)C(=O)O; Dab = NCC[C@H](N)C(=O)O; Dap = NC[C@H](N)C(=O)O

Key:
[1] = molecular target: T1, hNTS1 receptor (Homo sapiens, UniProt P30989); experiment: Competitive radioligand binding assay on the hNTS1 receptor; details: displacement of 125I-[Tyr3]-NT, membranes of CHO-K1 cells expressing hNTS1; read-out: IC50 NTS1
T1 construct: membranes prepared from them
Procedure, shortened: (§1)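 Membranes from CHO-K1 cells expressing hNTS1 (15 µg, […] ¹²⁵I-[Tyr³]-NT) or 1321N1 cells expressing hNTS2 (50 µg, […] radioligand) were incubated with analogues at 10⁻¹¹–10⁻⁴ M for 60 min at 25 °C in Tris-HCl pH 7.5/0.2% BSA. Filtration and γ-counting followed; nonspecific binding was defined with 10⁻⁵ M NT(8-13), and IC50 was obtained by one-site fit.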

[2] = molecular target: T2, hNTS2 receptor (Homo sapiens, UniProt O95665); experiment: Competitive radioligand binding assay on the hNTS2 receptor; details: for IC50: displacement of 125I-[Tyr3]-NT, membranes of 1321N1 cells expressing hNTS2, read-out: IC50 NTS2 (converted); for Selectivity: ratio IC50 for NTS1 : IC50 for NTS2
T2 construct: membranes prepared from them
Procedure, shortened: as §1

T2 sequence (O95665 whole entry): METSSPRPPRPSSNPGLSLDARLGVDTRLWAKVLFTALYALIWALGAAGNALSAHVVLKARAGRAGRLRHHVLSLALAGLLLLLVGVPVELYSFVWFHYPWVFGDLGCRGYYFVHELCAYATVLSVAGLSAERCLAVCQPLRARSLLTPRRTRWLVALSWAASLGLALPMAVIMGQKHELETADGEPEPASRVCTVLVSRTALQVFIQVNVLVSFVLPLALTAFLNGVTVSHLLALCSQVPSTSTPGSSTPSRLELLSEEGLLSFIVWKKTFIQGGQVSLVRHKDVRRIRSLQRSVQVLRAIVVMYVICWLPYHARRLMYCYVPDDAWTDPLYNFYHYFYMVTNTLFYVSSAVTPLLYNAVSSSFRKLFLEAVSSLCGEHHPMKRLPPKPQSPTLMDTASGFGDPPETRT
T1 sequence (P30989 whole entry): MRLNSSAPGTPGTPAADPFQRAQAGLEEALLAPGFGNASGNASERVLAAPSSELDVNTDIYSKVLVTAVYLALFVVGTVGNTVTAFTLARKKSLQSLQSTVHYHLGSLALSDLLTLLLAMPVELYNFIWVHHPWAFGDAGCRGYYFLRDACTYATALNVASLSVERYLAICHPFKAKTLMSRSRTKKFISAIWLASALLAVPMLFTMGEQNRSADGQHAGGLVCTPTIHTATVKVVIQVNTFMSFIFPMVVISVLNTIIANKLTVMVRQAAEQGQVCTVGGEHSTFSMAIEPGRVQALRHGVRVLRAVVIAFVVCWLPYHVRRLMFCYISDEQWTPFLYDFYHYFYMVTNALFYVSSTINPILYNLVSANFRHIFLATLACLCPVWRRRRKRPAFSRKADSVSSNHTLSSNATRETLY

IC50 [1]	IC50 [2]	Selectivity [2]	Structure (SMILES)
> 100000 nM	40.2 nM	>2488	CC(C)C[C@H](NC(=O)[C@H](Cc1ccc(C(C)(C)C)cc1)NC(=O)[C@@H]1CC=CC[C@H](N)C(=O)N[C@@H](CCCCN)C(=O)N[C@@H](CCCCN)C(=O)N1)C(=O)O [compound 110, c[G(All)KKG(All)]F(4-tbu)L] (H-[AllylGly]KK[AllylGly][Phe(4-tBu)]L-OH; staple 1-4)
> 100000 nM	47.9 nM	>2087	CC(C)C[C@H](NC(=O)[C@H](Cc1ccc(C(F)(F)F)cc1)NC(=O)[C@@H]1CC=CC[C@H](N)C(=O)N[C@@H](CCCCN)C(=O)N[C@@H](CCCCN)C(=O)N1)C(=O)O [compound 111, c[G(All)KKG(All)]F(4-CF3)L] (H-[AllylGly]KK[AllylGly][Phe(4-CF3)]L-OH; staple 1-4)
> 100000 nM	48 nM	>2084	CC(C)C[C@H](NC(=O)[C@H](Cc1cccc(Cl)c1)NC(=O)[C@@H]1CC=CC[C@H](N)C(=O)N[C@@H](CCCCN)C(=O)N[C@@H](CCCCN)C(=O)N1)C(=O)O [compound 113, c[G(All)KKG(All)]F(3-chloro)L] (H-[AllylGly]KK[AllylGly][Phe(3-Cl)]L-OH; staple 1-4)
> 100000 nM	40.6 nM	>2466	CC(C)C[C@H](NC(=O)[C@H](Cc1ccc(Cl)cc1)NC(=O)[C@@H]1CC=CC[C@H](N)C(=O)N[C@@H](CCCCN)C(=O)N[C@@H](CCCCN)C(=O)N1)C(=O)O [compound 114, c[G(All)KKG(All)]F(4-chloro)L] (H-[AllylGly]KK[AllylGly][Phe(4-Cl)]L-OH; staple 1-4)
> 100000 nM	28.4 nM	>3523	CC(C)C[C@H](NC(=O)[C@H](Cc1cccc(Br)c1)NC(=O)[C@@H]1CC=CC[C@H](N)C(=O)N[C@@H](CCCCN)C(=O)N[C@@H](CCCCN)C(=O)N1)C(=O)O [compound 115, c[G(All)KKG(All)]F(3-bromo)L] (H-[AllylGly]KK[AllylGly][Phe(3-Br)]L-OH; staple 1-4)
> 100000 nM	32.3 nM	>3097	CC(C)C[C@H](NC(=O)[C@H](Cc1cccc(I)c1)NC(=O)[C@@H]1CC=CC[C@H](N)C(=O)N[C@@H](CCCCN)C(=O)N[C@@H](CCCCN)C(=O)N1)C(=O)O [compound 117, c[G(All)KKG(All)]F(3-iodo)L] (H-[AllylGly]KK[AllylGly][Phe(3-I)]L-OH; staple 1-4)
> 100000 nM	1800 nM	56	CC(C)C[C@H](NC(=O)[C@@H](NC(=O)[C@@H]1CC=CC[C@H](N)C(=O)N[C@@H](CCCCN)C(=O)N[C@@H](CCCCN)C(=O)N1)c1ccc(O)cc1)C(=O)O [compound 125] (H-[AllylGly]KK[AllylGly][Hpg]L-OH; staple 1-4)
> 100000 nM	81.7 nM	1224	CC(C)C[C@H](NC(=O)[C@H](CCc1ccc(O)cc1)NC(=O)[C@@H]1CC=CC[C@H](N)C(=O)N[C@@H](CCCCN)C(=O)N[C@@H](CCCCN)C(=O)N1)C(=O)O [compound 126, c[G(All)KKG(All)]homoYL] (H-[AllylGly]KK[AllylGly][hTyr]L-OH; staple 1-4)
> 100000 nM	136 nM	733	CC(C)C[C@H](NC(=O)[C@H](Cc1ccc(O)cc1)NC(=O)C1(C)CCCC=CCCC(=O)N[C@@H](CCCCN)C(=O)N[C@@H](CCCCN)C(=O)N1)C(=O)O (stereo partly drawn) [compound 132, c[K(Pentenoyl)KG(alpha-Me-(4-pentenyl))]YL]
> 100000 nM	37.7 nM	2653	CC(C)C[C@H](NC(=O)[C@H](Cc1ccc(Br)cc1)NC(=O)C1(C)CCCC=CCCC(=O)N[C@@H](CCCCN)C(=O)N[C@@H](CCCCN)C(=O)N1)C(=O)O (stereo partly drawn) [compound 136, c[PentenoylKKG(alpha-Me-(4-pentenyl))]F(4-bromo)L]
> 100000 nM	48.5 nM	2061	CC(C)C[C@H](NC(=O)[C@H](Cc1ccc(-c2ccccc2)cc1)NC(=O)[C@@H]1CC=CC[C@H](N)C(=O)N[C@@H](CCCCN)C(=O)N[C@@H](CCCCN)C(=O)N1)C(=O)O [compound 139, c[G(All)KKG(All)]A (biphenyl)L] (H-[AllylGly]KK[AllylGly][Bip]L-OH; staple 1-4)

The next lines start with the compound.

Structure (SMILES)	IC50 [1]	IC50 [2]	Selectivity [2]
CC(C)C[C@H](NC(=O)[C@H](Cc1ccc(O)cc1)NC(=O)[C@@H]1CNC(=O)C[C@H](N)C(=O)N[C@@H](CCCCN)C(=O)N[C@@H](CCCCN)C(=O)N1)C(=O)O [compound 103, c[DKKDap]YL] (H-DKK[Dap]YL-OH; lactam 1-4)	> 100000 nM	9100 nM	>11.0
CC(C)C[C@H](NC(=O)[C@H](Cc1ccc(O)cc1)NC(=O)[C@@H]1CCNC(=O)CC[C@H](N)C(=O)N[C@@H](CCCCN)C(=O)N[C@@H](CCCCN)C(=O)N1)C(=O)O [compound 104, c[EKKDab]YL] (H-EKK[Dab]YL-OH; lactam 1-4)	> 100000 nM	16500 nM	>6.1
CC(C)C[C@H](NC(=O)[C@H](Cc1ccc(O)cc1)NC(=O)[C@@H]1CCNC(=O)C[C@H](N)C(=O)N[C@@H](CCCCN)C(=O)N[C@@H](CCCCN)C(=O)N1)C(=O)O [compound 105, c[DKKDab]YL] (H-DKK[Dab]YL-OH; lactam 1-4)	> 100000 nM	1450 nM	>67.0
CC(C)C[C@H](NC(=O)[C@H](Cc1ccc2ccccc2c1)NC(=O)[C@@H]1CC=CC[C@H](N)C(=O)N[C@@H](CCCCN)C(=O)N[C@@H](CCCCN)C(=O)N1)C(=O)O [compound 112, c[G(All)KKG(All)]A(naphtyl)L] (H-[AllylGly]KK[AllylGly][2Nal]L-OH; staple 1-4)	> 100000 nM	83.6 nM	>1196
CC(C)C[C@H](NC(=O)[C@H](Cc1ccc(C#N)cc1)NC(=O)[C@@H]1CC=CC[C@H](N)C(=O)N[C@@H](CCCCN)C(=O)N[C@@H](CCCCN)C(=O)N1)C(=O)O [compound 118, c[G(All)KKG(All)]F(4-cyano)L] (H-[AllylGly]KK[AllylGly][Phe(4-CN)]L-OH; staple 1-4)	> 100000 nM	57.8 nM	>1729
NCCCC[C@@H]1NC(=O)CCC=CC[C@@H](C(=O)N[C@@H](Cc2ccc(O)cc2)C(=O)N[C@@H](CC2CCCC2)C(=O)O)NC(=O)[C@H](CCCCN)NC1=O [compound 129, c[pK(pentenoyl)KG(All)]Y A(cyclopentyl)]	> 100000 nM	13.9 nM	7194
CC(C)C[C@H](NC(=O)[C@H](Cc1ccc(Br)cc1)NC(=O)C1(C)CCCC=CC[C@H](N)C(=O)N[C@@H](CCCCN)C(=O)N[C@@H](CCCCN)C(=O)N1)C(=O)O (stereo partly drawn) [compound 130, c[G(All)KKG(alpha-Me-(4-pentenyl))]F(4-bromo)L] (H-[AllylGly]KK[ξαMeNle(6-ylidene)][Phe(4-Br)]L-OH; staple 1-4)	> 100000 nM	10.2 nM	9843
CC(C)C[C@H](NC(=O)[C@H](Cc1ccc(Br)cc1)NC(=O)[C@@H]1CC=CCCC(=O)N[C@@H](CCCCN)C(=O)N[C@@H](CCCCN)C(=O)N1)C(=O)O [compound 131, c[K(pentenoyl)KG(All)](4-bromo)L]	> 100000 nM	27.4 nM	3650
NCCCC[C@@H]1NC(=O)CCC=CC[C@@H](C(=O)N[C@@H](Cc2ccc(Br)cc2)C(=O)N[C@@H](CC2CCCC2)C(=O)O)NC(=O)[C@H](CCCCN)NC1=O [compound 134, cK([Pentenoyl)KG(All)]F(4-bromo)A (cyclopentyl)]	> 100000 nM	17.7 nM	5650
CC1(C(=O)N[C@@H](Cc2ccc(O)cc2)C(=O)N[C@@H](CC2CCCC2)C(=O)O)CCCC=CCCC(=O)N[C@@H](CCCCN)C(=O)N[C@@H](CCCCN)C(=O)N1 (stereo partly drawn) [compound 135, c[K(Pentenoyl)KG(alpha-Me-(4-pentenyl))]YA(cyclopentyl)]	> 100000 nM	45.9 nM	2179
CC1(C(=O)N[C@@H](Cc2ccc(Br)cc2)C(=O)N[C@@H](CC2CCCC2)C(=O)O)CCCC=CCCC(=O)N[C@@H](CCCCN)C(=O)N[C@@H](CCCCN)C(=O)N1 (stereo partly drawn) [compound 137, c[K(Pentenoyl)KG(alpha-Me-(4-pentenyl))]F(4-bromo)A (cyclopentyl)]	> 100000 nM	9.6 nM	10428
CC(C)C[C@H](NC(=O)[C@H](C)NC(=O)[C@@H]1CC=CC[C@H](N)C(=O)N[C@@H](CCCCN)C(=O)N[C@@H](CCCCN)C(=O)N1)C(=O)O [compound 138, c[G(All)KKG(All)]AL] (H-[AllylGly]KK[AllylGly]AL-OH; staple 1-4)	> 100000 nM	582 nM	172
CC(C)C[C@H](NC(=O)[C@@H](NC(=O)[C@@H]1CC=CC[C@H](N)C(=O)N[C@@H](CCCCN)C(=O)N[C@@H](CCCCN)C(=O)N1)C(c1ccccc1)c1ccccc1)C(=O)O [compound 140, c[G(All)KKG(All)]A (diphenyl)L] (H-[AllylGly]KK[AllylGly][Dip]L-OH; staple 1-4)	> 100000 nM	631 nM	158
CC(C)C[C@H](NC(=O)[C@H](CC1CCCC1)NC(=O)[C@@H]1CC=CC[C@H](N)C(=O)N[C@@H](CCCCN)C(=O)N[C@@H](CCCCN)C(=O)N1)C(=O)O [compound 142, c[G(All)KKG(All)]A (cyclopentyl)L] (H-[AllylGly]KK[AllylGly][Ala(cPent)]L-OH; staple 1-4)	> 100000 nM	204 nM	490
